In article PMC4286326 (Journal of the American Chemical Society, 2014):
Where two headings read alike, the source gives them in different places.

Key:
[1] = in vitro; conditions: dog
[2] = target: WT M2 (A/M2) (Influenza A virus, UniProt P0DOF5); experiment: biochemical
[3] = system: WT M2-expressing A/Udorn/72; experiment: microbe, parasite or virus in culture; format: cell-based; conditions: Influenza A virus, MDCK, read-out: A/Udorn/72 (S31) EC50

Sequence of WT M2 (A/M2) (P0DOF5 whole entry, looked up): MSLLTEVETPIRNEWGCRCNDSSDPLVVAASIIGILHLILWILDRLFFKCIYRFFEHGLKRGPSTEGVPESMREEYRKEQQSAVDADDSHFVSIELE

| Structure (SMILES) | CC50 [1] | inhibition at 100 µM ([2]; read-out: % WT inhibition) | inhibition at 100 µM ([2]; read-out: % WT(S31) inhibition) | EC50 [3] |
| --- | --- | --- | --- | --- |
| Brc1ccc(CNC23CC4CC(CC(C4)C2)C3)s1 [Compound 11, N-[(5-bromothiophen-2-yl)methyl]adamantan-1-amine] | 123 µM | 77% | 77% | 4.6 µM |
| NC12CC3CC(CC(C3)C1)C2 [Compound 1, amantadine, reference compound] | > 300 µM | – | – | 0.3 µM |
